# Measured values published in patent US20040029178A1, “Novel g protein-coupled receptor proteins and dnas thereof” (priority 2000, published 2004).
# Peptide text beside a SMILES is read from it.
# Molecular target: T1, TGR26 (Rattus norvegicus, UniProt Q56UD9)
# T1 construct: expressed in transfected cells; whole cells in A1, membrane fraction in A2 and A3
# T1 sequence (Q56UD9 1-329): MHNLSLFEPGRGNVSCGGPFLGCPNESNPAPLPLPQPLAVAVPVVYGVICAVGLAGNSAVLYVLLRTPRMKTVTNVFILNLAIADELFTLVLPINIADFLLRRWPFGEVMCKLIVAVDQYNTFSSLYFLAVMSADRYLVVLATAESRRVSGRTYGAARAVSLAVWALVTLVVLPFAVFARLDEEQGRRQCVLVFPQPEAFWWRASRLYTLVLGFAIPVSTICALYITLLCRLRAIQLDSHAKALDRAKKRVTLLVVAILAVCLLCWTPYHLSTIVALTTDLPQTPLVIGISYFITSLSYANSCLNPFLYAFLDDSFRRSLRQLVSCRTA
# Assay: Receptor binding using [125I-Tyr10]-hGPR8L (1-23) and membrane fraction of TGR26 expressing CHO cells
# Conditions: membrane fraction of TGR26 expressing CHO cells, [125I-Tyr10]-hGPR8L (1-23), method of Example 8
# Description: Using [^125I-Tyr^10]-hGPR8L (1-23) prepared by the method described in Reference Example 15 and a cell membrane fraction prepared from TGR26 expressing cells as described in Example 6, a receptor binding assay was carried out as follows.
# Cell membrane fraction prepared from TGR26 expressing cells was diluted to various concentration with assay buffer (25 mM Tris-HCl, 5 mM EDTA, 0.05% CHAPS (3-[(3-Cholamidopropyl) Dimethyl-Ammonio]-1-Propanesulfonate), 0.1% BSA, 0.5 mM PMSF, 1 μg/ml Pepstatin, 20 μg/ml Leupeptin, 4 μg/ml E-64, pH 7.4), and 200 μl each of the diluent was dispensed into polypropilene test tube (Falcon 2053). In order to determine an amount of maximum binding, 2 μl of DMSO and 2 μl of 7 nM [^125I-Tyr^10]-hGPR8L (1-23) were added to the membrane fraction solution. Further, in order to determine a non-specific binding, 2 μl of 100 μM hGPR8L (1-23)/DMSO solution and 2 μl of 7 nM [^125I-Tyr^10]-hGPR8L (1-23) were added to the membrane fraction solution. The reaction was done at 25° C. for 75 minutes, and the reaction mixture was filtered by suction filtration using Whatman glassfilter (GF-F) treated with polyethyleneimine. In addition, the filter was washed twice with 1.5 ml of washing buffer (25 mM Tris-HCl, 5 mM EDTA, 0.05% CHAPS, 0.1% BSA, pH 7.4). After filtration, a radioactivity remaining on the filter was counted using γ-counter, and an amount of specific binding was estimated by subtracting an amount of non-specific binding from an amount of maximum binding.
# Where the concentration of membrane fraction was set to 3 μg/ml, an inhibition for the specific binding of [125I-Tyr^10]-hGPR8L (1-23) to the membrane fraction of TGR26 expressing cells by hGPR8L (1-23) and hGPR8L (1-30) was investigated.
# A receptor binding activity of human- and porcine-homologue derivatives of GPR8 ligand peptide obtained in the reference examples was measured using a membrane fraction of TGR26 expressing CHO cells and [^125I-Tyr^10]-hGPR8L (1-23) by the method described in Example 8. The receptor binding activity is represented by concentration of 50% inhibition for binding (IC50 value).
row,IC50 [nM],SMILES
1,240,"CSCC[C@H](NC(=O)[C@H](CC(C)C)NC(=O)[C@H](CC(C)C)NC(=O)CNC(=O)[C@H](C)NC(=O)[C@H](C)NC(=O)[C@H](CCCNC(=N)N)NC(=O)CNC(=O)[C@@H](NC(=O)[C@@H](NC(=O)[C@H](Cc1c[nH]cn1)NC(=O)[C@H](Cc1ccc(O)cc1)NC(=O)[C@H](CCCNC(=N)N)NC(=O)[C@@H]1CCCN1C(=O)[C@H](CO)NC(=O)[C@H](C)NC(=O)[C@@H](NC(=O)[C@H](Cc1c[nH]cn1)NC(=O)[C@H](CCCCN)NC(=O)[C@@H](N)Cc1ccc(O)cc1)C(C)C)[C@@H](C)O)C(C)C)C(=O)NCC(=O)N[C@@H](CC(C)C)C(=O)O [hGPR8L (2-23), Tyr-Lys-His-Val-Ala-Ser-Pro -Arg-Tyr-His-Thr-Val-Gly-Arg-Ala-Ala-Gly-Leu-Leu-Met-Gly-Leu] (H-YKHVASPRYHTVGRAAGLLMGL-OH; C-terminus assumed)"
2,1.3,"CSCC[C@H](NC(=O)[C@H](CC(C)C)NC(=O)[C@H](CC(C)C)NC(=O)CNC(=O)[C@H](C)NC(=O)[C@H](C)NC(=O)[C@H](CCCNC(=N)N)NC(=O)CNC(=O)[C@@H](NC(=O)[C@@H](NC(=O)[C@H](Cc1c[nH]cn1)NC(=O)[C@H](Cc1ccc(O)cc1)NC(=O)[C@H](CCCNC(=N)N)NC(=O)[C@@H]1CCCN1C(=O)[C@H](CO)NC(=O)[C@H](C)NC(=O)[C@@H](NC(=O)[C@H](Cc1c[nH]cn1)NC(=O)[C@H](CCCCN)NC(=O)[C@H](Cc1ccc(O)cc1)NC(=O)[C@H](N)Cc1c[nH]c2ccccc12)C(C)C)[C@@H](C)O)C(C)C)C(=O)NCC(=O)N[C@@H](CC(C)C)C(=O)O [[D-Trp^1]-hGPR8L (1-23), D-Trp-Tyr-Lys-His-Val -Ala-Ser-Pro-Arg-Tyr-His-Thr-Val-Gly-Arg-Ala-Ala-Gly-Leu-Leu-Met-Gly-Leu]"
3,9.9,"CC(C)C[C@H](NC(=O)CNC(=O)[C@H](C)NC(=O)[C@H](C)NC(=O)[C@H](CCCNC(=N)N)NC(=O)CNC(=O)[C@@H](NC(=O)[C@@H](NC(=O)[C@H](Cc1c[nH]cn1)NC(=O)[C@H](Cc1ccc(O)cc1)NC(=O)[C@H](CCCNC(=N)N)NC(=O)[C@@H]1CCCN1C(=O)[C@H](CO)NC(=O)[C@H](C)NC(=O)[C@@H](NC(=O)[C@H](Cc1c[nH]cn1)NC(=O)[C@H](CCCCN)NC(=O)[C@H](Cc1ccc(O)cc1)NC(=O)[C@@H](N)Cc1c[nH]c2ccccc12)C(C)C)[C@@H](C)O)C(C)C)C(=O)O [hGPR8L (1-19), Trp-Tyr-Lys-His-Val-Ala-Ser -Pro-Arg-Tyr-His-Thr-Val-Gly-Arg-Ala-Ala-Gly-Leu] (H-WYKHVASPRYHTVGRAAGL-OH; N-terminus and C-terminus assumed)"
4,2000,"CSCC[C@H](NC(=O)[C@H](CC(C)C)NC(=O)[C@H](CC(C)C)NC(=O)CNC(=O)[C@H](C)NC(=O)[C@H](C)NC(=O)[C@H](CCCNC(=N)N)NC(=O)CNC(=O)[C@@H](NC(=O)[C@@H](NC(=O)[C@H](Cc1c[nH]cn1)NC(=O)[C@H](Cc1ccc(O)cc1)NC(=O)[C@H](CCCNC(=N)N)NC(=O)[C@@H]1CCCN1C(=O)[C@H](CO)NC(=O)[C@H](C)NC(=O)[C@@H](NC(=O)[C@@H](N)Cc1c[nH]cn1)C(C)C)[C@@H](C)O)C(C)C)C(=O)NCC(=O)N[C@@H](CC(C)C)C(=O)O [hGPR8L (4-23), His-Val-Ala-Ser-Pro-Arg-Tyr -His-Thr-Val-Gly-Arg-Ala-Ala-Gly-Leu-Leu-Met-Gly-Leu] (H-HVASPRYHTVGRAAGLLMGL-OH; C-terminus assumed)"
5,0.23,CSCC[C@H](NC(=O)[C@H](CC(C)C)NC(=O)[C@H](CC(C)C)NC(=O)CNC(=O)[C@H](C)NC(=O)[C@H](C)NC(=O)[C@H](CCCNC(=N)N)NC(=O)CNC(=O)[C@@H](NC(=O)[C@@H](NC(=O)[C@H](Cc1c[nH]cn1)NC(=O)[C@H](Cc1ccc(O)cc1)NC(=O)[C@H](CCCNC(=N)N)NC(=O)[C@@H]1CCCN1C(=O)[C@H](CO)NC(=O)[C@H](C)NC(=O)[C@@H](NC(=O)[C@H](Cc1c[nH]cn1)NC(=O)[C@H](CCCCN)NC(=O)[C@H](Cc1ccc(O)cc1)NC(=O)[C@H](Cc1c[nH]c2ccccc12)NC(=O)OCC1c2ccccc2-c2ccccc21)C(C)C)[C@@H](C)O)C(C)C)C(=O)NCC(=O)N[C@@H](CC(C)C)C(=O)O [Fmoc-hGPR8L (1-23)]
6,0.17,"CC(C)C[C@H](NC(=O)[C@H](CC(C)C)NC(=O)CNC(=O)[C@H](C)NC(=O)[C@H](C)NC(=O)[C@H](CCCNC(=N)N)NC(=O)CNC(=O)[C@@H](NC(=O)[C@@H](NC(=O)[C@H](Cc1c[nH]cn1)NC(=O)[C@H](Cc1ccc(O)cc1)NC(=O)[C@H](CCCNC(=N)N)NC(=O)[C@@H]1CCCN1C(=O)[C@H](CO)NC(=O)[C@H](C)NC(=O)[C@@H](NC(=O)[C@H](Cc1c[nH]cn1)NC(=O)[C@H](CCCCN)NC(=O)[C@H](Cc1ccc(O)cc1)NC(=O)[C@@H](N)Cc1c[nH]c2ccccc12)C(C)C)[C@@H](C)O)C(C)C)C(=O)O [hGPR8L (1-20), Trp-Tyr-Lys-His-Val-Ala-Ser -Pro-Arg-Tyr-His-Thr-Val-Gly-Arg-Ala-Ala-Gly-Leu-Leu] (H-WYKHVASPRYHTVGRAAGLL-OH; N-terminus and C-terminus assumed)"
7,0.29,"CC(C)C[C@H](NC(=O)CNC(=O)[C@H](CC[S+](C)[O-])NC(=O)[C@H](CC(C)C)NC(=O)[C@H](CC(C)C)NC(=O)CNC(=O)[C@H](C)NC(=O)[C@H](C)NC(=O)[C@H](CCCNC(=N)N)NC(=O)CNC(=O)[C@@H](NC(=O)[C@@H](NC(=O)[C@H](Cc1c[nH]cn1)NC(=O)[C@H](Cc1ccc(O)cc1)NC(=O)[C@H](CCCNC(=N)N)NC(=O)[C@@H]1CCCN1C(=O)[C@H](CO)NC(=O)[C@H](C)NC(=O)[C@@H](NC(=O)[C@H](Cc1c[nH]cn1)NC(=O)[C@H](CCCCN)NC(=O)[C@H](Cc1ccc(O)cc1)NC(=O)[C@@H](N)Cc1c[nH]c2ccccc12)C(C)C)[C@@H](C)O)C(C)C)C(=O)O (stereo partly drawn) [[Met(O)]-hGPR8L (1-23), Trp-Tyr-Lys-His-Val-Ala -Ser-Pro-Arg-Tyr-His-Thr-Val-Gly-Arg-Ala-Ala-Gly-Leu-Leu-Met(O)-Gly-Leu]"
8,760,"CC(C)[C@H](NC(=O)[C@H](Cc1c[nH]cn1)NC(=O)[C@H](CCCCN)NC(=O)[C@H](Cc1ccc(O)cc1)NC(=O)[C@@H](N)Cc1c[nH]c2ccccc12)C(=O)N[C@@H](C)C(=O)N[C@@H](CO)C(=O)N1CCC[C@H]1C(=O)N[C@@H](CCCNC(=N)N)C(=O)N[C@@H](Cc1ccc(O)cc1)C(=O)N[C@@H](Cc1c[nH]cn1)C(=O)N[C@H](C(=O)N[C@H](C(=O)NCC(=O)N[C@@H](CCCNC(=N)N)C(=O)N[C@@H](C)C(=O)N[C@@H](C)C(=O)NCC(=O)O)C(C)C)[C@@H](C)O [hGPR8L (1-18), Trp-Tyr-Lys-His-Val-Ala-Ser -Pro-Arg-Tyr-His-Thr-Val-Gly-Arg-Ala-Ala-Gly] (H-WYKHVASPRYHTVGRAAG-OH; N-terminus and C-terminus assumed)"
9,2500,"CSCC[C@H](NC(=O)[C@H](CC(C)C)NC(=O)[C@H](CC(C)C)NC(=O)CNC(=O)[C@H](C)NC(=O)[C@H](C)NC(=O)[C@H](CCCNC(=N)N)NC(=O)CNC(=O)[C@@H](NC(=O)[C@@H](NC(=O)[C@H](Cc1c[nH]cn1)NC(=O)[C@H](Cc1ccc(O)cc1)NC(=O)[C@@H](N)CCCNC(=N)N)[C@@H](C)O)C(C)C)C(=O)NCC(=O)N[C@@H](CC(C)C)C(=O)O [hGPRBL (9-23), Arg-Tyr-His-Thr-Val-Gly-Arg -Ala-Ala-Gly-Leu-Leu-Met-Gly-Leu] (H-RYHTVGRAAGLLMGL-OH; C-terminus assumed)"
10,570,"CSCC[C@H](NC(=O)[C@H](CC(C)C)NC(=O)[C@H](CC(C)C)NC(=O)CNC(=O)[C@H](C)NC(=O)[C@H](C)NC(=O)[C@H](CCCNC(=N)N)NC(=O)CNC(=O)[C@@H](NC(=O)[C@@H](NC(=O)[C@H](Cc1c[nH]cn1)NC(=O)[C@H](Cc1ccc(O)cc1)NC(=O)[C@H](CCCNC(=N)N)NC(=O)[C@@H]1CCCN1C(=O)[C@H](CO)NC(=O)[C@H](C)NC(=O)[C@@H](NC(=O)[C@H](Cc1c[nH]cn1)NC(=O)[C@H](CCCCN)NC(=O)[C@H](Cc1ccc(O)cc1)NC(C)=O)C(C)C)[C@@H](C)O)C(C)C)C(=O)NCC(=O)N[C@@H](CC(C)C)C(=O)O [Ac-hGPR8L (2-23), Ac-Tyr-Lys-His -Val-Ala-Ser-Pro-Arg-Tyr-His-Thr-Val-Gly-Arg-Ala-Ala-Gly-Leu-Leu-Met-Gly-Leu] (Ac-YKHVASPRYHTVGRAAGLLMGL-OH; C-terminus assumed)"
